Experiment [1] has as its system PNT1A (normal prostate cells). The experiment can be described thus: MTT cell proliferation assay, PNT1A cells. Conditions: 72 h, non-tumoral cells, read-out: Estimated IC50, PNT1A. Format: cell-based. The method, then:
(§1) LNCaP, PC-3, MCF-7, PNT1A, N27, and NHDF cells were obtained from the American Type Culture Collection (ATCC; Manassas, VA, USA) and were cultured in 75 cm^2 culture flasks at 37 °C in a humidified air incubator with 5% CO2. LNCaP, PC-3, PNT1A, and N27 cells, respectively, were cultured in RPMI 1640 medium (Sigma-Aldrich, Inc. St. Louis, MO, USA) with 10% fetal bovine serum (FBS; Sigma-Aldrich, Inc. St. Louis, MO, USA) and 1% of the antibiotic mixture of 10,000 U/mL penicillin G and […] streptomycin (Sp, Sigma-Aldrich, Inc. St. Louis, MO, USA). MCF-7 cells were cultured in DMEM medium (Sigma-Aldrich, Inc. St. Louis, MO, USA) supplemented with 10% fetal bovine serum (FBS; Sigma-Aldrich, Inc. St. Louis, MO, USA) and 1% antibiotic/antimycotic (10,000 U/mL penicillin G, […] streptomycin, and 25 µg/mL amphotericin B: Ab, Sigma-Aldrich, Inc. St. Louis, MO, USA). Finally, NHDF cells were cultured in RPMI 1640 medium supplemented with 10% FBS, 2 mM L-glutamine, 10 mM HEPES, 1 mM sodium pyruvate, and 1% of the antibiotic/antimycotic Ab, and these cells were used in passages 10th to 14th. For all cell types, the medium was renewed every 2 days until cells nearly reached the confluence state. When cells reach approximately 90–95% confluence, they are gently detached by trypsinization (trypsin-EDTA solution: 0.125 g/L of trypsin and 0.02 g/L of EDTA). Before each experiment, viable cells were counted in a Neubauer chamber by a trypan-blue exclusion assay and adequately diluted in the appropriate complete cell culture medium.
(§2) All tested compounds were dissolved in dimethyl sulfoxide (DMSO; Sigma-Aldrich, Inc. St. Louis, MO, USA) at a concentration of 10 mM and stored at 4 °C. From the mother-solutions, the diluted solutions of the compounds, in different concentrations, were prepared in the respective complete culture medium before each experiment.
(§3) After reaching a confluence state, cells were trypsinized and counted by the trypan-blue exclusion assay and then seeded with an initial density of 2 × 10^4 cells/mL in 96-well culture plates (Nunc, Apogent, Denmark) and left to adhere and grow for 48 h. Subsequently, the medium was removed, and the cells were treated with compound solutions (10 and 50 µM for preliminary studies and 0.01, 0.1, 1, 10, 50, and 100 µM for concentration-response studies) in complete culture medium for 72 h. 5-Fluorouracil (5-FU) was used as a positive control, and untreated cells were used as the negative control. Compounds leading to cell proliferation relative to control clearly below 50%, at 10 µM, or clearly below 25%, at 50 µM, in the screening studies were selected to concentration-response studies in tumoral cell lines. Each experiment was performed in quadruplicate and independently at least two times. The in vitro antiproliferative effects were evaluated by the MTT assay (Sigma-Aldrich, Inc. St. Louis, MO, USA). After the incubation period, the medium was removed, and 100 µL of phosphate buffer saline (PBS, NaCl 137 mM; KCl 2.7 mM; Na2HPO4 10 mM; and KH2PO4 1.8 mM in deionized water with a pH adjusted to 7.4) were used to wash the cells. Then, 100 µL of the MTT solution (5 mg/mL) was prepared in the appropriate serum-free medium and added to each well, followed by incubation for 4 h at 37 °C. Hereafter, the MTT containing medium was removed, and the formazan crystals were dissolved in DMSO. Then, the absorbance was measured at 570 nm using a xMarkTM microplate spectrophotometer from BIO-RAD Laboratories. Cell viability values were expressed as percentages relative to the negative control.

Experiment [2] has as its system NHDF cells (normal human dermal fibroblasts). Briefly: MTT cell proliferation assay, NHDF cells. It counts as cell-based. As to conditions: 72 h, non-tumoral cells, read-out: Estimated IC50, NHDF. The procedure:
as §1, §2, §3

Experiment [3] relates to LNCaP cells (androgen-dependent prostatic cancer). Briefly: MTT cell proliferation assay, LNCaP cells. It counts as cell-based. Conditions: 72 h; for IC50: MTT, tumoral cells, read-out: Estimated IC50, LNCaP; for effect on LNCaP cell proliferation: 10 µM; for decrease in LNCaP cell proliferation: 50 µM. The procedure: as §1, §2, §3
Experiment [4] concerns all cell lines (NHDF, PNT1A, N27, LNCaP, PC-3, MCF-7). The experiment can be described thus: MTT preliminary screening, all cell lines taken together. Format: cell-based. Conditions: 50 µM, 72 h. The procedure: as §1, §2, §3
Experiment [5] has as its system PC-3 cells (androgen-independent prostatic cancer). The experiment can be described thus: MTT cell proliferation assay, PC-3 cells. Format: cell-based. Conditions: 72 h; for IC50: MTT, tumoral cells, read-out: Estimated IC50, PC-3; for decrease on cell proliferation relative to the control: PC-3, 50 µM. The method, then: as §1, §2, §3
Experiment [6] deals with N27 (rat dopaminergic neuronal cells). The experiment can be described thus: MTT cell proliferation assay, N27 cells. Format: cell-based. As to conditions: 72 h, non-tumoral cells, read-out: Estimated IC50, N27. The method, then: as §1, §2, §3
The subject of experiment [7] is MCF-7 cells (estrogen-responsive breast cancer cells). The experiment can be described thus: MTT cell proliferation assay, MCF-7 cells. It counts as cell-based. Conditions: 72 h; for IC50: MTT, tumoral cells, read-out: Estimated IC50, MCF-7. The method, then:
as §1, §2, §3

The test system of the next experiment is N27 cells. Briefly: N27 cell viability after 24 h (MTT), substance alone. Format: cell-based, rat. Conditions: 50 μM. The method, then:
The immortalized rat mesencephalic dopaminergic cell line (N27 cells; a kind gift from Dr. Yoon-Seong Kim, Burnett School of Biomedical Sciences, University of Central Florida) was grown in Roswell Park Memorial Institute (RPMI) 1640 medium (Sigma-Aldrich) containing 2 g/L sodium bicarbonate, 10% fetal bovine serum (FBS; Millipore), and 1 mL/L of penicillin/streptomycin (GIBCO) in a humidified atmosphere of 5% CO2 at 37 °C. Cells were plated at a density of 0.31 × 10^5 cells per cm^2 in 96-well culture plates. […] To assess cell viability, MTT reduction was performed as previously described (Section 2.3) with some modifications. Briefly, after 24 h of cell treatments, 0.5 mg/mL of MTT was added to cells for 4 h at 37 °C. Then, the resultant precipitate was dissolved in 10% SDS and quantified at a wavelength of 570 nm.

As for “(E)-16-Benzylidene-3-hydroxy-5α,6α-epoxy-10,13-dimethyl-1,3,4,7,8,9,10,11,12,13,15,16-dodecahydro-2H-cyclopenta[α]phenanthrene-17(14H)-one [Compound 15]”, the IC50 was 33.1 µM in experiment [1]; 39.5 µM in experiment [2]; 27.4 µM in experiment [3]; 17 µM in experiment [5]; 9.21 µM in experiment [6]; 42.7 µM in experiment [7]. The compound further displayed a relative cell proliferation in experiment [4] not above 50%. The “decrease on cell proliferation relative to the control” value in experiment [5] is “higher than 75%”.

On to `NCCc1cc(O)c(O)cc1O` [Compound 6-OHDA, 6-hydroxydopamine, reference compound], for which, in the experiment with N27 cells, the “reduction in cell viability compared to the control” value is approximately 50%.

With `COc1ccc(C=C2CC3C4CC5OC56CC(O)CCC6(C)C4CCC3(C)C2=O)cc1` (stereo not drawn) [Compound 16, (E)-16-(4-Metoxybenzylidene)-3-hydroxy-5α ,6α -epoxy-10,13-dimethyl-1,3,4,7,8,9,10,11,12,13,15,16-dodecahydro-2H-cyclopenta[α ]phenanthren-17(14H)-one], the IC50 in experiment [1] was 54.5 µM; in experiment [2], 39.3 µM; in experiment [5], 20.1 µM; in experiment [6] it was 33.2 µM.

Turning to “(E)-16-(2,4-Dichlorobenzylidene)-3-hydroxy-5α ,6α -epoxy-10,13-dimethyl-1,3,4,7,8,9,10,11,12,13,15,16-dodecahydro-2H-cyclopenta[α ]phenanthren-17(14H)-one [Compound 22]”, the IC50 in experiment [1] is 14.4 µM; in experiment [2] it was 15 µM; in experiment [3], 15 µM; in experiment [5], 44.5 µM; in experiment [6], 16.8 µM; in experiment [7], 14.5 µM. Moreover, the “effect on LNCaP cell proliferation” value in experiment [3] is recorded as “no relevant effects”. Moreover, the “decrease in LNCaP cell proliferation” value in experiment [3] is “higher than 75%”. This compound showed a relative cell proliferation in experiment [4] not above 50%. Also, the “decrease on cell proliferation relative to the control” value in experiment [5] is listed as “higher than 75%”. Further, the “cell proliferation relative to the control” value in experiment [7] (MCF-7, 50 µM) is approximately 0%.

Regarding `C[C@]12CC[C@H]3[C@@H](C[C@@H]4O[C@@]45CC(O)CC[C@]35C)[C@@H]1C/C(=C\c1cccc(F)c1F)C2=O` (stereo partly drawn) [Compound 24, (E)-16-(2,3-Difluorobenzylidene)-3-hydroxy-5α ,6α -epoxy-10,13-dimethyl-1,3,4,7,8,9,10,11,12,13,15,16-dodecahydro-2H-cyclopenta[α ]phenanthren-17(14H)-one], the IC50 in experiment [1] was 56.5 µM; in experiment [2], 33.4 µM; in experiment [6], 18.9 µM.

Turning to `CC12CCC3C(CC4OC45CC(O)CCC35C)C1CC(=Cc1ccc(Br)cc1)C2=O` (stereo not drawn) [Compound 25, (E)-16-(4-Bromobenzylidene)-3-hydroxy-5α ,6α -epoxy-10,13-dimethyl-1,3,4,7,8,9,10,11,12,13,15,16-dodecahydro-2H-cyclopenta[α ]phenanthren-17(14H)-one], the IC50 in experiment [1] is 15.3 µM; in experiment [2] it was 16 µM; in experiment [3] it was 36.9 µM; in experiment [5], 14.5 µM; in experiment [6] it was 15.4 µM; in experiment [7], 14.5 µM. Besides, in experiment [3], the “effect on LNCaP cell proliferation” value is “no relevant effects”. Further, the “decrease in LNCaP cell proliferation” value in experiment [3] is on record as “higher than 75%”. Also, the relative cell proliferation in experiment [4] is listed as not above 50%. Also, the “decrease on cell proliferation relative to the control” value in experiment [5] is on record as “higher than 75%”.

As for `Cc1ccc(/C=C2\C[C@H]3[C@@H]4C[C@@H]5O[C@@]56CC(O)CC[C@]6(C)[C@H]4CC[C@]3(C)C2=O)o1` (stereo partly drawn) [Compound 21, (E)-16-[(5-Methylfuran-2-yl)methylene]-3-hydroxy-5α ,6α -epoxy-10,13-dimethyl-1,3,4,7,8,9,10,11,12,13,15,16-dodecahydro-2H-cyclopenta[α ]phenanthren-17(14H)-one], the figures for the IC50 in experiment [1], in experiment [2] and in experiment [6] were 46.3 µM, 23.4 µM and 13.2 µM, respectively.

Turning to `Cc1ccc(C=C2CC3C4CC5OC56CC(O)CCC6(C)C4CCC3(C)C2=O)cc1` (stereo not drawn) [Compound 23, (E)-16-(4-Methylbenzylidene)-3-hydroxy-5α ,6α -epoxy-10,13-dimethyl-1,3,4,7,8,9,10,11,12,13,15,16-dodecahydro-2H-cyclopenta[α ]phenanthren-17(14H)-one], the IC50 is 13.3 µM in experiment [1]; 28.3 µM in experiment [2]; 19.3 µM in experiment [3]; 14 µM in experiment [5]; 12.7 µM in experiment [6]; 18.7 µM in experiment [7]. In experiment [3], the “effect on LNCaP cell proliferation” value is listed as “no relevant effects”. In experiment [3], the “decrease in LNCaP cell proliferation” value is reported as “higher than 75%”. The relative cell proliferation in experiment [4] is listed as not above 50%.

In the case of “(E)-16-[(5-Chlorothiophen-2-yl)methylene]-3-hydroxy-5α ,6α -epoxy-10,13-dimethyl-1,3,4,7,8,9,10,11,12,13,15,16-dodecahydro-2H-cyclopenta[α ]phenanthren-17(14H)-one [Compound 26]”, the IC50 in experiment [1] was 15.6 µM; in experiment [2] it was 16.6 µM; in experiment [3], 11.3 µM; in experiment [5], 43.8 µM; in experiment [6], 14.3 µM; in experiment [7], 21.8 µM. In experiment [3], the “effect on LNCaP cell proliferation” value is given as “no relevant effects”. The “decrease in LNCaP cell proliferation” value in experiment [3] is given as “higher than 75%”. Also, the relative cell proliferation in experiment [4] is recorded as not above 50%. Besides, the “decrease on cell proliferation relative to the control” value in experiment [5] is “higher than 75%”.

For `CC12CCC3C(CC4OC45CC(O)CCC35C)C1CC(=Cc1cccs1)C2=O` (stereo not drawn) [Compound 18, (E)-16-(Thiophen-2-ylmethylene)-3-hydroxy-5α ,6α -epoxy-10,13-dimethyl-1,3,4,7,8,9,10,11,12,13,15,16-dodecahydro-2H-cyclopenta[α ]phenanthren-17(14H)-one], the IC50 was 29.6 µM in experiment [1], 29.7 µM in experiment [2], 37.6 µM in experiment [5] and 12.6 µM in experiment [6].

Values taken from article PMC10045663, “Synthesis, In Vitro Biological Evaluation of Antiproliferative and Neuroprotective Effects and In Silico Studies of Novel 16E-Arylidene-5α,6α-epoxyepiandrosterone Derivatives” (Biomedicines, 2023).
